The values that follow come from patent publication US20220370464A1, “COMPOSITIONS AND METHODS OF TREATING OR PREVENTING OCULAR INFECTIONS WITH FILOCICLOVIR” (Microbiotix, Inc., priority 2019, published 2022).

The test system of one data set is AdV7a. As to the kind of experiment: Plaque reduction antiviral IC50 assay in A549, AdV7a. The data set is classed as cell-based, adenovirus 7a. To be noted: unidentified adenovirus. As to the method:
(§1) The effectiveness of filociclovir to inhibit a number of adenovirus strains associated with conjunctivitis were tested in an in vitro assay. To determine the in vitro IC50 concentrations, i.e., the concentration of filociclovir that inhibits adenovirus plaque formation by 50%, filociclovir and cidofovir (CDV) were tested against a panel of 7 ocular types of adenovirus.
(§2) 42 A549 24-well multiplates (1 per each drug and each virus strain) were prepared. 7 adenovirus serotypes were tested at a time. Virus dilutions from known titer of stock viruses (approx. 100 PFU/0.1 ml) were prepared with AdV3 L, AdV4 H, AdV5 M, AdV7a J, AdV8 E, AdV 19/64 K, and AdV37 ATCC. 0.1 ml (containing approx. 100 PFU) of each of the 7 viruses were plated onto all 24 wells of an A549 multiplate and incubated at 37° C. in a 5% CO2 water-vapor atmosphere for 3 hours.
(§3) Dilutions of filociclovir and cidofovir were prepared at 400, 40, 4.0, 0.4, 0.04, and 0.004 μM in 2× nutrient tissue culture media, following the dilution protocol: 7.5 ml of each of filociclovir and cidofovir dilution was added to a tube and 22.5 ml of methylcellulose in outgrowth medium (OG) was then added to each tube. 1 ml of each filociclovir and cidofovir dilutions was added to an additional 15 ml tube and 3 ml of OG was added to each tube. This was the overlay for the Adv8 plates. Normal methylcellulose overlay medium without any drug was used for the control wells for each plate.
(§4) For each virus plate, 3 wells were overlaid with each of the 6 final filociclovir and cidofovir concentrations (100, 10, 1.0, 0.1, 0.01, and 0.001 μM) and 6 wells with the control media. Plates were incubated at 37° C. in a 5% CO2 water-vapor atmosphere until plaques were visible. When plaques became visible, plates were stained with gentian violet and plaques were counted at 25λ using a dissecting microscope. The IC50 concentrations were determined from Fitted Line Plot regression analysis using Minitab. All assays were performed in triplicate.

Another data set relates to AdV6. Kind of data set: Therapeutic efficacy against intravenous AdV6 in immunosuppressed male Syrian hamsters. To be noted: for serum transaminase (ALT) levels (FIG. 7) / virus burden in the liver (FIG. 8): 5 days post challenge; for mortality / survival (FIG. 6A): AdV6-infected hamsters. As for the experimental part:
Four dose levels were tested: 10, 30, 60 and 100 mg/kg p.o. q.d. The highest dose was determined based on rat toxicology data.
All hamsters were immunosuppressed using cyclophosphamide (CP). CP was administered intraperitoneally at a dose of 140 mg/kg, and then twice weekly at a dose of 100 mg/kg.
Filociclovir, in powdered form, was suspended in 0.4% carboxymethyl cellulose (Sigma C5678, Lot #SLBS7273) at 1, 3, 6, and 10 mg/ml and sonicated to visual homogeneity and aliquots stored at 4° C. Aliquots were allowed to equilibrate to room temperature before dosing. Hamsters weighing approximately 100 g were dosed with a 1 ml volume of the appropriate suspension for the 10, 30, 60, and 100 mg/kg dose levels.
The hamsters were divided into 8 groups, 15 hamsters/group, (with the exception of Group 2, which had only 5 hamsters; see Table 3), immunosuppressed, and then injected i.v. with vehicle (Groups 1-2) or 2×10^10 PFU/kg of AdV6 (Groups […]). Groups 1 and 3 received drug vehicle (p.o. q.d.), Group 4 received 10 mg/kg filociclovir (p.o. q.d.), Group 5 received 30 mg/kg filociclovir (p.o. q.d.), Group 6 received 60 mg/kg filociclovir (p.o. q.d.), Groups 2 and 7 received 100 mg/kg filociclovir (p.o. q.d.), and Group 8 received cidofovir (20 mg/kg, 3 times weekly). For all groups, drug administration started 1 day before challenge, and continued according to the schedule above for the duration of the study.
The body weights and any signs of morbidity of the animals were recorded daily. At 5 days post challenge, 5 hamsters (designated at the start of the experiment) from each group (with the exception of Group 2) were sacrificed, and gross pathological observation was performed. Serum and liver samples were collected and the virus burden in liver was determined by a TCID50 assay, and the serum was analyzed for transaminase levels. The remaining 10 hamsters were sacrificed at 14 days post challenge. Hamsters that became visually moribund before Day 14 were sacrificed as needed. In addition to the hamsters observed to be moribund, all hamsters that lost more than 20% of their original body weight were also sacrificed. For the hamsters sacrificed at the conclusion of the experiment and those sacrificed as moribund, serum and liver tissues were collected and banked for possible determination of serum transaminase levels and virus burden in the liver. Liver tissue was preserved in formalin for possible histopathological examination.
As such, there were two endpoints for the study: One, collected from ten animals, was survival and body weight gain/loss (with the option of assaying virus burden in the liver and serum transaminase levels). The other, collected from 5 animals for the Day 5 time point, was virus burden in the liver and serum transaminase levels.

The next data set concerns AdV37. Kind of data set: Plaque reduction antiviral IC50 assay in A549, AdV37. To be noted: unidentified adenovirus. The data set is classed as cell-based, adenovirus 37. As to the method:
as §1, §2, §3, §4

For another data set, the system named is AdV4. Kind of data set: Plaque reduction antiviral IC50 assay in A549, AdV4. The following applies: Human mastadenovirus E. The format is cell-based, adenovirus 4. As for the experimental part: as §1, §2, §3, §4
In a further data set the test system is AdV64. As to the kind of experiment: Plaque reduction antiviral IC50 assay in A549, AdV64. To be noted: unidentified adenovirus. The data set is classed as cell-based, adenovirus 19/64. As to the method: as §1, §2, §3, §4

Where two headings read alike, the source gives them in different places.

Regarding `Nc1ccn(C[C@@H](CO)OCP(=O)(O)O)c(=O)n1` [CDV, cidofovir, reference compound], the IC50 in the data set on AdV7a (read-out: Mean IC50) turned out to be 1.81 µM; in the data set on AdV7a (read-out: Median IC50), 0.617 µM; in the data set with AdV37 (read-out: Mean IC50), 3.96 µM; in the data set on AdV37 (read-out: Median IC50), 0.382 µM; in the data set with AdV4 (read-out: Mean IC50), 8.71 µM; in the data set with AdV4 (read-out: Median IC50), 9.43 µM. Besides, the IC50 was determined as 4.09 µM in the data set on AdV64 (read-out: Mean IC50) and 4.94 µM in the data set on AdV64 (read-out: Median IC50). Besides, the “serum transaminase (ALT) levels (FIG. 7)” value with AdV6 (20 mg/kg i.p. 3x weekly) is given as “none of the filociclovir- or CDV-treated animals had elevated serum transaminase levels”. In addition, the “virus burden in the liver (FIG. 8)” value in the data set on AdV6 (20 mg/kg i.p. 3x weekly) is reported as “very low to nonquantifiable levels”.

Consider `Nc1nc2c(ncn2/C=C2/CC2(CO)CO)c(=O)[nH]1` [Filociclovir, 2-amino-9-{(Z)-[2,2-bis(hydroxymethyl)cyclopropylidene]methyl}-3,9-dihydro-6H-purin-6-one], for which the IC50 with AdV7a (read-out: Mean IC50) was found to be 2.12 µM; in the data set with AdV7a (read-out: Median IC50), 0.769 µM; with AdV37 (read-out: Mean IC50), 3.53 µM; in the data set with AdV37 (read-out: Median IC50), 4.52 µM; in the data set on AdV4 (read-out: Mean IC50), 4.31 µM; in the data set on AdV4 (read-out: Median IC50) it was 4.24 µM. Also, the IC50 in the data set on AdV64 (read-out: Mean IC50) worked out at 1.86 µM; in the data set on AdV64 (read-out: Median IC50), 0.424 µM. For the same compound, the “body weight loss (FIG. 6B)” value in the data set with AdV6 (10 mg/kg p.o. q.d.) and with AdV6 (30 mg/kg p.o. q.d.) was “reversed” throughout. The “mortality / survival (FIG. 6A)” value in the data set on AdV6 (10 mg/kg p.o. q.d.) and with AdV6 (30 mg/kg p.o. q.d.) was “prevented mortality” each time. The “toxicity for AdV6-infected hamsters” value with AdV6 (60 mg/kg p.o. q.d.) and with AdV6 (100 mg/kg p.o. q.d.) was “toxic” throughout. Besides, the “virus burden in the liver (FIG. 8)” value with AdV6 (10 mg/kg p.o. q.d.) was “one animal in the AdV6+10 mg/kg filociclovir group with a very low liver virus burden”; with AdV6 (30 mg/kg p.o. q.d.), “nondetectable level”. The “serum transaminase (ALT) levels (FIG. 7)” value in the data set with AdV6 (filociclovir-treated animals) is recorded as “none of the filociclovir- or CDV-treated animals had elevated serum transaminase levels”. The “necropsy finding at day 5 sacrifice” value in the data set on AdV6 (AdV6+60 mg/kg p.o. q.d.) and with AdV6 (AdV6+100 mg/kg p.o. q.d.) was “extensive kidney pathology” throughout.

The term IC50 denotes the point on the concentration scale where inhibition reaches its midpoint.
